Source: PubChem BioAssay (NCI)
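Step 1: Grow cells in 96-well plates. Step 2: Expose to compound for 48 hours at 5 concentrations. Step 3: Interpolate endpoints linearly; if unreached, use highest concentration. TGI: concentration producing complete growth inhibition.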

Legend:
Assay in all cases: NCI tumour cell line growth inhibition, 48 h
[1] = system: 786-0 renal
[2] = system: A498 renal
[3] = system: A549 NSCLC
[4] = system: ACHN renal
[5] = system: BT-549 breast
[6] = system: CAKI-1 renal
[7] = system: CCRF-CEM leukemia
[8] = system: COLO 205 colon
[9] = system: DU-145 prostate
[10] = system: EKVX NSCLC
[11] = system: HCC-2998 colon
[12] = system: HCT-116 colon
[13] = system: HCT-15 colon
[14] = system: HL-60(TB) leukemia
[15] = system: HOP-62 NSCLC
[16] = system: HOP-92 NSCLC
[17] = system: HS 578T breast
[18] = system: HT29 colon
[19] = system: K-562 leukemia
[20] = system: KM12 colon
[21] = system: LOX IMVI melanoma
[22] = system: M14 melanoma
[23] = system: MALME-3M melanoma
[24] = system: MCF7 breast
[25] = system: MDA-MB-231 breast
[26] = system: MDA-MB-435
[27] = system: MDA-N
[28] = system: MOLT-4 leukemia
[29] = system: NCI-H226 lung
[30] = system: NCI-H23 lung
[31] = system: NCI-H460 lung
[32] = system: NCI-H522 lung
[33] = system: NCI/ADR-RES ovarian
[34] = system: OVCAR-3 ovarian
[35] = system: OVCAR-4 ovarian
[36] = system: OVCAR-5 ovarian
[37] = system: OVCAR-8 ovarian
[38] = system: PC-3 prostate
[39] = system: RPMI-8226 leukemia
[40] = system: RXF 393 renal
[41] = system: SF-268 CNS
[42] = system: SF-295 CNS
[43] = system: SF-539 CNS
[44] = system: SK-MEL-2 melanoma
[45] = system: SK-MEL-28 melanoma
[46] = system: SK-MEL-5 melanoma
[47] = system: SK-OV-3 ovarian
[48] = system: SN12C renal
[49] = system: SNB-19 CNS
[50] = system: SNB-75 CNS
[51] = system: SR leukemia
[52] = system: SW-620 colon
[53] = system: T-47D breast
[54] = system: TK-10 renal
[55] = system: U251 CNS
[56] = system: UACC-257 melanoma
[57] = system: UACC-62 melanoma
[58] = system: UO-31 renal
[59] = system: DLD-1 colon
[60] = system: DMS 114 small cell lung
[61] = system: HOP-18 NSCLC
[62] = system: IGROV1 ovarian
[63] = system: KM20L2 colon
[64] = system: LXFL 529 NSCLC
[65] = system: M19-MEL melanoma
[66] = system: SNB-78 CNS
[67] = system: XF 498 CNS
[68] = system: DMS 273 small cell lung

O=C(c1ccc(Cl)cc1)N(Cc1cccnc1)C(=S)N(Cc1cccnc1)C(=O)c1ccc(Cl)cc1
TGI [1]: 48.2 µM
TGI [2]: 91.5 µM
TGI [3]: > 100 µM
TGI [4]: > 100 µM
TGI [5]: 51 µM
TGI [6]: > 100 µM
TGI [7]: > 100 µM
TGI [8]: 43.4 µM
TGI [9]: > 100 µM
TGI [10]: > 100 µM
TGI [11]: 61.3 µM
TGI [12]: 80.3 µM
TGI [13]: > 100 µM
TGI [14]: 85.2 µM
TGI [15]: > 100 µM
TGI [16]: > 100 µM
TGI [17]: > 100 µM
TGI [18]: 76.9 µM
TGI [19]: > 100 µM
TGI [20]: > 100 µM
TGI [21]: 47.4 µM
TGI [22]: 59.7 µM
TGI [23]: > 100 µM
TGI [24]: > 100 µM
TGI [25]: 59.3 µM
TGI [26]: > 100 µM
TGI [27]: 56.6 µM
TGI [28]: > 100 µM
TGI [29]: > 100 µM
TGI [30]: > 100 µM
TGI [31]: > 100 µM
TGI [32]: 69.1 µM
TGI [33]: > 100 µM
TGI [34]: > 100 µM
TGI [35]: 79.7 µM
TGI [36]: > 100 µM
TGI [37]: 85.3 µM
TGI [38]: 90.3 µM
TGI [39]: > 100 µM
TGI [40]: > 100 µM
TGI [41]: 79.5 µM
TGI [42]: > 100 µM
TGI [43]: 50.4 µM
TGI [44]: 49 µM
TGI [45]: > 100 µM
TGI [46]: 90.1 µM
TGI [47]: > 100 µM
TGI [48]: 48.1 µM
TGI [49]: > 100 µM
TGI [50]: > 100 µM
TGI [51]: > 100 µM
TGI [52]: > 100 µM
TGI [53]: > 100 µM
TGI [54]: > 100 µM
TGI [55]: 53.6 µM
TGI [56]: > 100 µM
TGI [57]: > 100 µM
TGI [58]: 98.4 µM

Cc1ccc(NC(=O)c2cccc([N+](=O)[O-])c2O)c(C)c1
TGI [2]: 63.5 µM
TGI [3]: 63.8 µM
TGI [4]: 89.5 µM
TGI [6]: 79.8 µM
TGI [7]: > 100 µM
TGI [8]: > 100 µM
TGI [59]: > 100 µM
TGI [60]: > 100 µM
TGI [10]: 98.6 µM
TGI [11]: > 100 µM
TGI [12]: > 100 µM
TGI [14]: 55.6 µM
TGI [61]: 6.44 µM
TGI [15]: > 100 µM
TGI [18]: > 100 µM
TGI [62]: > 100 µM
TGI [19]: > 100 µM
TGI [20]: > 100 µM
TGI [63]: > 100 µM
TGI [21]: > 100 µM
TGI [64]: > 100 µM
TGI [22]: > 100 µM
TGI [65]: > 100 µM
TGI [23]: 17.9 µM
TGI [28]: > 100 µM
TGI [29]: > 100 µM
TGI [30]: > 100 µM
TGI [31]: > 100 µM
TGI [32]: 70.1 µM
TGI [34]: > 100 µM
TGI [35]: > 100 µM
TGI [36]: > 100 µM
TGI [37]: > 100 µM
TGI [39]: 92.7 µM
TGI [41]: > 100 µM
TGI [42]: 74.3 µM
TGI [43]: 89.6 µM
TGI [44]: > 100 µM
TGI [45]: > 100 µM
TGI [47]: > 100 µM
TGI [48]: > 100 µM
TGI [49]: > 100 µM
TGI [50]: > 100 µM
TGI [66]: > 100 µM
TGI [51]: > 100 µM
TGI [52]: > 100 µM
TGI [55]: > 100 µM
TGI [56]: 66.2 µM
TGI [57]: > 100 µM
TGI [58]: 35.1 µM

COc1cc(/C=C(\NC(=O)c2ccccc2)c2nc3ccc([N+](=O)[O-])cc3[nH]2)cc(OC)c1OC
TGI [6]: > 100 µM
TGI [7]: > 100 µM
TGI [8]: > 100 µM
TGI [59]: > 100 µM
TGI [60]: > 100 µM
TGI [11]: > 100 µM
TGI [13]: > 100 µM
TGI [16]: > 100 µM
TGI [18]: > 100 µM
TGI [62]: > 100 µM
TGI [19]: > 100 µM
TGI [20]: > 100 µM
TGI [63]: > 100 µM
TGI [64]: > 100 µM
TGI [22]: > 100 µM
TGI [65]: > 100 µM
TGI [23]: > 100 µM
TGI [28]: > 100 µM
TGI [30]: > 100 µM
TGI [32]: > 100 µM
TGI [34]: > 100 µM
TGI [35]: > 100 µM
TGI [36]: > 100 µM
TGI [37]: > 100 µM
TGI [40]: > 100 µM
TGI [42]: > 100 µM
TGI [44]: > 100 µM
TGI [45]: > 100 µM
TGI [46]: > 100 µM
TGI [47]: > 100 µM
TGI [48]: > 100 µM
TGI [49]: > 100 µM
TGI [66]: > 100 µM
TGI [51]: > 100 µM
TGI [52]: > 100 µM
TGI [54]: > 100 µM
TGI [55]: > 100 µM
TGI [57]: > 100 µM
TGI [58]: 89.5 µM
TGI [67]: > 100 µM

COCC(=O)[C@]1(O)Cc2c(O)c3c(c(O)c2[C@@H](OC2CC(N)C(O)C(C)O2)C1)C(=O)c1c(OC)cccc1C3=O (stereo not given in full)
TGI [1]: 12.2 µM
TGI [2]: 0.624 µM
TGI [3]: 17.4 µM
TGI [5]: 1.99 µM
TGI [6]: 0.422 µM
TGI [7]: 0.4 µM
TGI [8]: 1.63 µM
TGI [59]: 5.15 µM
TGI [60]: 0.477 µM
TGI [68]: 0.603 µM
TGI [9]: 0.974 µM
TGI [10]: 2.9 µM
TGI [11]: 0.691 µM
TGI [12]: 1.08 µM
TGI [13]: 0.498 µM
TGI [14]: 0.184 µM
TGI [15]: 0.847 µM
TGI [16]: 1.12 µM
TGI [17]: 0.0892 µM
TGI [18]: 0.735 µM
TGI [62]: 6.83 µM
TGI [19]: 0.785 µM
TGI [20]: 0.357 µM
TGI [63]: 0.938 µM
TGI [21]: 0.148 µM
TGI [64]: 2.11 µM
TGI [22]: 0.275 µM
TGI [65]: 0.339 µM
TGI [23]: 0.335 µM
TGI [25]: 2.97 µM
TGI [27]: 0.249 µM
TGI [28]: 0.054 µM
TGI [29]: 0.665 µM
TGI [30]: 0.256 µM
TGI [31]: 0.583 µM
TGI [32]: 0.124 µM
TGI [34]: 0.536 µM
TGI [35]: 1.56 µM
TGI [36]: 1.04 µM
TGI [37]: 3.95 µM
TGI [38]: 1.48 µM
TGI [39]: 0.564 µM
TGI [40]: 0.267 µM
TGI [41]: 0.267 µM
TGI [42]: 1.34 µM
TGI [43]: 0.312 µM
TGI [44]: 0.259 µM
TGI [45]: 0.398 µM
TGI [46]: 0.228 µM
TGI [47]: 4.03 µM
TGI [48]: 3.42 µM
TGI [49]: 2.45 µM
TGI [50]: 0.161 µM
TGI [66]: 30.6 µM
TGI [51]: 0.159 µM
TGI [52]: 3.01 µM
TGI [53]: 0.737 µM
TGI [54]: 13.8 µM
TGI [55]: 1.27 µM
TGI [56]: 1.48 µM
TGI [57]: 0.255 µM
TGI [58]: 0.231 µM
